Values of other authors as cited in US20130230587A1, “SUSTAINED RELEASE COMPOSITIONS” (Rubicon Research Private Limited, priority 2010, published 2013).

Structure (SMILES): COc1ccc2c(c1)[C@]13CCCC[C@@H]1[C@H](C2)N(C)CC3 [Dextromethorphan]
- Time to peak plasma concentrations (absorbed from the gastrointestinal tract): approximately 2.5 hours
- Plasma elimination half-life (in vivo): 1.2 to 3.9 h
